Assay results reported in patent publication US6770645B2, “Pharmaceutically active compounds” (Pfizer Inc., priority 2001, dated 2004).
Like-named read-outs stand apart in the source and are kept apart here.

Legend:
[1] = target: T1, cGMP PDE5 (Homo sapiens, UniProt O76074); assay: In vitro cGMP PDE5 inhibitory activity (IC50); assay type: biochemical
T1 construct: The required PDE enzymes were isolated from a variety of sources, including human corpus cavernosum, human platelets; from tissue; host or cells: human corpus cavernosum tissue or human platelets
Experimental: The compounds of the present invention are potent and selective cGMP PDE5 inhibitors. In vitro PDE inhibitory activities against cyclic guanosine 3′,5′-monophosphate (cGMP) and cyclic adenosine 3′,5′-monophosphate (cAMP) phosphodiesterases were determined by measurement of their IC50 values (the concentration of compound required for 50% inhibition of enzyme activity).
The required PDE enzymes were isolated from a variety of sources, including human corpus cavernosum, human platelets, human cardiac ventricle, human skeletal muscle and human and canine retina, essentially by the method of W. J. Thompson and M. M. Appleman (Biochem., 1971, 10, 311). In particular, the cGMP-specific PDE (PDE5) and the cGMP-inhibited cAMP PDE (PDE3) were obtained from human corpus cavernosum tissue or human platelets; the cGMP-stimulated PDE (PDE2) was obtained from human corpus cavernosum or human platelets; the calcium/calmodulin (Ca/CAM)-dependent PDE (PDE1) from human cardiac ventricle; the cAMP-specific PDE (PDE4) from recombinant clone or human skeletal muscle; and the photoreceptor PDE (PDE6) from canine or human retina. Phosphodiesterases 7-11 were generated from full length human recombinant clones transfected into SF9 cells.
Assays were performed either using a modification of the “batch” method of W. J. Thompson et al. (Biochem., 1979, 18, 5228) or using a scintillation proximity assay for the direct detection of AMP/GMP using a modification of the protocol described by Amersham pic under product code TRKQ7090/7100. In summary, the effect of PDE inhibitors was investigated by assaying a fixed amount of enzyme in the presence of varying inhibitor concentrations and low substrate, (cGMP or cAMP in a 3:1 ratio unlabelled to [^3H]-labeled at a conc ˜½ Km) such that IC50 ≅Ki. The final assay volume was made up to 102 μl with assay buffer [20 mM Tris-HCl pH 7.4, 5 mM MgCl2, 1 mg/ml bovine serum albumin]. Reactions were initiated with enzyme, incubated for 30-60 min at 30° C. to give <30% substrate turnover and terminated with 50 μl yttrium silicate SPA beads (containing 3 mM of the respective unlabelled cyclic nucleotide for PDEs 3, 9 and 11). Plates were resealed and shaken for 20 min, after which the beads were allowed to settle for 30 min in the dark and then counted on a TopCount plate reader (Packard, Meriden, Conn.). Radioactivity units were converted to % activity of an uninhibited control (100%), plotted against inhibitor concentration and inhibitor IC50 values obtained using the ‘Fit Curve’ Microsoft Excel extension or inhouse equivalent.

[2] = In vitro metabolism: human liver microsome (HLM) half-life; assay type: in vitro ADME; conditions: human liver microsomes, pH 7.4, human liver microsomes
Experimental: In vitro metabolism experiments were carried out in the hepatic microsomal fractions from man. Transplant-quality human liver tissue was obtained from the International Institute for the Advancement of Medicine (Exton, Pa., USA). Microsomes were prepared according to the method described in Biochemical Pharmacology, […], 48, 2147-2156 and stored at −80° C. The concentrations of protein and cytochrome P450 were determined by standard methods described in Journal of Biological Chemistry, 1951, 193, 265-275 and Journal of Biological Chemistry, 1964, 239, 2370-2378.
Microsomal incubations (1.5 ml) were prepared containing 0.5 μM cytochrome P450, 200 mM phosphate buffer (pH 7.4), 0.1 M MgCl2, 0.1 M isocitric acid, 1 unit/ml isocitrate dehydrogenase and 20 mM β-NADP. Compounds under study were added after a 5 min preincubation at 37° C. to give an initial substrate concentration of 1 μM. The mixture was incubated at 37° C. and samples (100 μl) were removed for analysis for up to 60 min. Metabolism in samples was terminated by the addition of NaOH (0.1 M) containing an internal standard (chosen to have similar physicochemical properties to compounds under study), followed by extraction into ethyl acetate (2 ml). The extracts were evaporated to dryness and analysed by LC-MS/MS (Hewlett Packard HP1100 binary pump, Hypersil HS100 C18, 5 cm by 4.6 mm internal diameter, 5 μm column using a mobile phase of 2 mM ammonium acetate in 90:10 methanol/water, aqueous portion adjusted to pH 4 with glacial acetic acid, and a flowrate of 1 ml/min). The mass spectrometer was a Sciex API 2000 with TurbolonSpray interface using a positive ion multiple reaction monitoring (MRM) detection mode. Nitrogen was used as curtain, nebuliser, TurbolonSpray and collision gases, and the TurbolonSpray temperature was 100° C. Typical voltages were as follows: IS=5.2 kV; RNG=380 V; Q0=−10 V; IQ1=−11 V; ST=−15;RO1=−11 V; MU=gain adjusted as per Sciex user manual. Collision energy was 55 eV for high MRM, OR=65 V. Dwell time was 200 msec with a 50 msec pause. Data was acquired using MSExpress v 1.1 and processed using Macquan 1.5 (PE Sciex)). Disappearance rate constants (k) in human microsomal preparations were determined by linear regression of the log ratio (compound under study/internal standard) versus time. The in vitro human microsomal half-lives were determined according to the equation […]=In 2/k.

[3] = bounds for groups of Examples, read-out: IC50 values for the PDE5 enzyme
[4] = in vitro cGMP PDE5 inhibitory activity, Table 1, read-out: IC50
[5] = bound stated, read-out: HLM half-lifes
[6] = initial substrate concentration 1 μM, 37° C., Table 2, read-out: HLM t1/2

Row | Compound | half-life at 1 μM [2, 6] [min] | IC50 [1, 3] [nM] | IC50 [1, 4] [nM] | half-life at 1 μM [2, 5] [min] | melting point [°C]
1 | CCCCOc1ccc(S(C)(=O)=O)cc1-c1nc2c(CC)n(CCOC)nc2c(=O)[nH]1 [Example 2, 5-[2-Butoxy-5-(methylsulfonyl)phenyl]-3-ethyl-2-(2-methoxyethyl)-2,6-dihydro-7H-pyrazolo[4,3-d]pyrimidin-7-one] |  | < 10 | 6.5 | ≥ 30 | 174 to 176
2 | CCc1c2nc(-c3cc(S(C)(=O)=O)ccc3OCC(C)C)[nH]c(=O)c2nn1Cc1nccn1C [Example 9, 3-Ethyl-5-[2-isobutoxy-5-(methylsulfonyl)phenyl]-2-[(1-methyl-1H-imidazol-2-yl)methyl]-2,6-dihydro-7H-pyrazolo[4,3-d]pyrimidin-7-one] |  | < 10 | 3.95 | ≥ 30 | 253 to 254
3 | CCCOc1ccc(S(C)(=O)=O)cc1-c1nc2c(CC)nn(Cc3ccccn3)c2c(=O)[nH]1 [Example 11, 3-Ethyl-5-[5-(methylsulfonyl)-2-propoxyphenyl]-1-(2-pyridinylmethyl)-1,6-dihydro-7H-pyrazolo[4,3-d]pyrimidin-7-one] |  | < 10 | 1.4 | ≥ 30 | 
4 | CCc1c2nc(-c3cc(S(C)(=O)=O)ccc3OCC(C)C)[nH]c(=O)c2nn1C[C@H]1CCCN1C [Example 14, 3-Ethyl-5-[2-isobutoxy-5-(methylsulfonyl)phenyl]-2-{[(2R)-1-methylpyrrolidinyl]methyl}-2,6-dihydro-7H-pyrazolo[4,3-d]pyrimidin-7-one] |  | < 10 | 8.3 | ≥ 30 | 178 to 180
5 | CCCOc1ccc(S(C)(=O)=O)cc1-c1nc2c(CC)nn(C[C@@H]3CCCN3C)c2c(=O)[nH]1 [Example 18, 3-Ethyl-1-{[(2S)-1-methylpyrrolidinyl]methyl}-5-[5-(methylsulfonyl)-2-propoxyphenyl]-1,6-dihydro-7H-pyrazolo[4,3-d]pyrimidin-7-one] |  | < 10 | 5.4 | ≥ 30 | 211 to 215
6 | CCCCOc1ccc(S(C)(=O)=O)cc1-c1nc2c(CC)n(C3CN(C(C)C)C3)nc2c(=O)[nH]1 [Example 19, 5-[2-Butoxy-5-(methylsulfonyl)phenyl]-3-ethyl-2-(1-isopropyl-3-azetidinyl)-2,6-dihydro-7H-pyrazolo[4,3-d]pyrimidin-7-one] |  | < 10 | 6.6 | ≥ 30 | 209 to 213

Now from value to compound, other results behind:

Row | half-life at 1 μM [2, 6] [min] | Compound | IC50 [1, 3] [nM] | IC50 [1, 4] [nM] | half-life at 1 μM [2, 5] [min] | melting point [°C]
7 | 67 | CCCc1nn(C)c2c(=O)[nH]c(-c3cc(S(C)(=O)=O)ccc3OCC)nc12 [Example 1, 5-[2-Ethoxy-5-(methylsulfonyl)phenyl]-1-methyl-3-propyl-1,6-dihydro-7H-pyrazolo[4,3-d]pyrimidin-7-one] | < 10 | 5.6 | ≥ 30 | 235 to 236
8 | > 120 | CCCOc1ccc(S(C)(=O)=O)cc1-c1nc2c(CC)n(CC3CC3)nc2c(=O)[nH]1 [Example 12, 2-(Cyclopropylmethyl)-3-ethyl-5-[5-(methylsulfonyl)-2-propoxyphenyl]-2,6-dihydro-7H-pyrazolo[4,3-d]pyrimidin-7-one] | < 10 | 1 | ≥ 30 | 233 to 234
